Measurements published in patent publication US20100292288A1, “CRYSTALLINE FORMS OF (R)-1-{2-[4`- (3-METHOXY-PROPANE-1- SULFONYL)-BIPHENYL-4-YL]-ETHYL}-2-METHYL-PYRROLIDINE, AND COMPOSITIONS, AND METHODS RELATED THERETO” (ARENA PHARMACEUTICALS, INC., priority 2007, published 2010).

Key:
[1] = Dynamic vapor sorption (DVS) analysis, hygroscopicity; format: physicochemical; conditions: crystalline form; VTI-SGA100
Description: Dynamic vapor sorption analysis was conducted using a VTI-SGA100. Samples were placed in an open pan inside the instrument and allowed to dry at a relative humidity (RH) of 0%. The sample was considered sufficiently dry when a change in mass over time (dm/dt) was less than 0.04%. The subsequent experiment which, started immediately after drying, was as follows: RH increased in 5% RH steps from 0-95% followed by decreasing RH steps from 95-5%. A change in dm/dt of 0.002% was used to determine when equilibration at any given step was achieved prior to the instrument moving to the next relative humidity step.
Hygroscopicity was measured using a dynamic moisture-sorption analyzer, VTI Corporation, SGA-100. The sample was placed as-is in a tared sample holder on the VTI balance. A drying step was run at 40° C. and 1% RH for 20 minutes. The isotherm conditions are 25° C. with steps of 20% RH from 10% RH up to 90% RH and back to 10% RH. Weight is checked every 5 minutes. Consecutive % weight change of <0.01% or 2 hours, whichever occurs first, is required before continuing to the next step.

RAMH-induced drinking = assay: Blockade of RAMH-induced drinking assay; format: in vivo, rat; conditions: male Sprague Dawley rats; 0.3 mg/kg PO; RAMH 3 mg/kg SC 30 min later; water intake over 20 min
Description: When administered to rodents, H3 agonists such as R-α-methyl-histamine (RAMH) induce a drinking response which is sensitive to reversal with an H3 antagonist. Blockade of RAMH-induced drinking can therefore be utilised as an in vivo assay for functional H3 antagonist activity. In this assay, male Sprague Dawley rats (250-350 g) were housed three per cage and maintained under a reverse 12 h light cycle (lights off at 1130 h). At 1030 h on the day of test, rats were individually housed in new cages and food was removed. 120 min later, rats were administered test article (vehicle or H3 antagonist, 0.3 mg/kg PO). 30 min later, water was removed, and RAMH (vehicle or RAMH 3 mg/kg salt SC) was administered. 10 min after administration of RAMH, weighed water bottles were placed in the cages, and drinking was allowed for 20 min. Water consumption was determined for each animal by weighing each bottle to the nearest 0.1 g. Data is expressed as percentage reduction in water intake according to the following formula: [1−[(ANTAGONIST/RAMH)−(VEHICLE/RAMH)/(VEHICLE/RAMH)−(VEHICLE/VEHICLE)]]*100

histamine H3-receptor = histamine H3-receptor (Rattus norvegicus, UniProt Q9QYN8); assay: [3H] N-alpha-methyl-histamine competitive histamine H3-receptor binding assay; conditions: membranes from whole rat brain cortex; [3H]-N-α-methyl-histamine 1 nM; 30 min at room temperature
Sequence of histamine H3-receptor (Q9QYN8 1-397 isoform Q9QYN8-3): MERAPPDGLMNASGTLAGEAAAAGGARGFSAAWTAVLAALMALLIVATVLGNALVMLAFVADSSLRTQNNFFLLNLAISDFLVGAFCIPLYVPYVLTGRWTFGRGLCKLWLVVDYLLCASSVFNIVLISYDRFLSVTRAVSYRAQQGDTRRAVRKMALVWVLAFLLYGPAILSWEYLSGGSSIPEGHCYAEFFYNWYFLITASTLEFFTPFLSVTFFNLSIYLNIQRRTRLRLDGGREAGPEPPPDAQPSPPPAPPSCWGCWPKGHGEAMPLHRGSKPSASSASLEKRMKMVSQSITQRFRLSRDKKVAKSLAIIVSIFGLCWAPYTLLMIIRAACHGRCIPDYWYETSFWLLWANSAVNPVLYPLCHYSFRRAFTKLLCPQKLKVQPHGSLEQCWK
Description: The histamine receptor binding assay was conducted using standard laboratory procedures as described below. A crude membrane fraction was prepared from whole rat brain cortex using a polytron to homogenize the tissue followed by differential centrifugation in a HEPES-based buffer containing protease inhibitors. Membranes where frozen at −80° C. until needed. Frozen membranes were thawed and resuspended in ice-cold assay buffer consisting of 50 mM TRIS containing 5 mM EDTA (pH=7.4). 50 micrograms (μg) of membrane protein was added to each well of a 96-well assay plate along with test compound and [^3H]-N-α-methyl-histamine (1 nanomolar (nM) final assay concentration). Imetit was used as an assay positive control at varying concentrations. The plate was incubated for 30 min at room temperature. The assay was terminated by rapid filtration through a 96-well glass fiber filtration plate (GF/C) using a cell harvester (Perkin-Elmer). Captured membranes were washed three times with cold assay buffer and plates were dried at 50° C. 35 microliters (μL) of scintillation cocktail was added to each well and membrane-bound radioactivity was recorded using a TopCount 96-well plate scintillation counter (Perkin-Elmer).

[2] = target: T1, human histamine H3-receptor (Homo sapiens, UniProt Q9Y5N1); assay: Human histamine H3-receptor binding assay, MDS Pharma Services (Taiwan); conditions: Catalogue No. 239810
T1 construct: purchased MDS Pharma Services (Taiwan) 239810
T1 sequence (Q9Y5N1 whole entry): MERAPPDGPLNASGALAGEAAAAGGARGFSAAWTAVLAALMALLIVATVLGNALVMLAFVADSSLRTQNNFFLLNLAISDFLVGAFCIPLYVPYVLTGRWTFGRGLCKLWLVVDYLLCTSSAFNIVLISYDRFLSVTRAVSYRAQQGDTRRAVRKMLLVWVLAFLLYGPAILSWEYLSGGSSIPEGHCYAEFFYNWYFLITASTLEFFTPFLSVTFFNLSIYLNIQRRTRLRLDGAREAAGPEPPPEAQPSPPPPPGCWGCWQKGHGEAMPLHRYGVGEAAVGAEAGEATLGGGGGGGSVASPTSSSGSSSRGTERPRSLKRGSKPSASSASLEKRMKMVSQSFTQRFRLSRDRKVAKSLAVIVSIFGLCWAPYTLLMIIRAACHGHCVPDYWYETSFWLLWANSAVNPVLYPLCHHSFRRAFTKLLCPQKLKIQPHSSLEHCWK
Description: Compounds were tested for their ability to bind to the human histamine H3-receptor using the MDS Pharma Services (Taiwan) assay, Catalogue No. 239810.

Compound	hygroscopicity from DVS data [1]	% inhibition of RAMH-induced drinking (RAMH-induced drinking) [%]	Ki (histamine H3-receptor) [nM]	Ki [2] [nM]
COCCCS(=O)(=O)c1ccc(-c2ccc(CCN3CCC[C@H]3C)cc2)cc1.O=C(O)/C=C\C(=O)O [(R)-1-{2-[4′-(3-methoxy-propane-1-sulfonyl)-biphenyl-4-yl]-ethyl}-2-methyl-pyrrolidine maleate]	non-hygroscopic			
COCCCS(=O)(=O)c1ccc(-c2ccc(CCN3CCC[C@H]3C)cc2)cc1.O=C(O)CC(O)(CC(=O)O)C(=O)O.O=C(O)CC(O)(CC(=O)O)C(=O)O [Cmpd (I) di-citrate, (R)-1-{2-[4′-(3-methoxy-propane-1-sulfonyl)-biphenyl-4-yl]-ethyl}-2-methyl-pyrrolidine di-citrate]	non-hygroscopic	104 ± 14	0.75	
COCCCS(=O)(=O)c1ccc(-c2ccc(CCN3CCC[C@H]3C)cc2)cc1 [Cmpd (I), (R)-1-{2-[4′-(3-methoxy-propane-1-sulfonyl)-biphenyl-4-yl]-ethyl}-2-methyl-pyrrolidine]				5.37
